Experimental data from patent US20100063155A1, “N-(3-PHENYLPROPYL)BENZAMIDE DERIVATIVES” (priority 2007, published 2010).

Test system: Alternaria brassicae
Experiment: In vivo test on Alternaria brassicae (leaf spot of crucifers)
Conditions: 500 ppm, preventive spray on radish plants (Pernot variety), contaminated after 24 hours, grading 6 to 7 days after contamination vs control plants
Description: The active ingredients tested are prepared by potter homogenisation in a mixture of acetone/tween/water. This suspension is then diluted with water to obtain the desired active material concentration.
Radish plants (Pernot variety), sown on a 50/50 peat soil-pozzolana substrate in starter cups and grown at 18-20° C., are treated at the cotyledon stage by spraying with the active ingredient prepared as described above.
Plants, used as controls, are treated with the mixture of acetone/tween/water not containing the active material.
After 24 hours, the plants are contaminated by spraying them with an aqueous suspension of Alternaria brassicae spores (40,000 spores per cm^3). The spores are collected from a 12 to 13 days-old culture.
The contaminated radish plants are incubated for 6-7 days at about 18° C., under a humid atmosphere.
Grading is carried out 6 to 7 days after the contamination, in comparison with the control plants.

**Q.** Which protection does the source give for `O=C(NCCCc1ccc(Cl)cc1Cl)c1ccccc1C(F)(F)F` [Compound 1, N-[3-(2,4-dichlorophenyl)propyl]-2-(trifluoromethyl)benzamide] here?
**A.** at least 70%
